How the values were obtained:
Format in all cases: in vivo, mouse
[1] = test system: muscles Soleus, Plantaris and Tibialis of SMA mice; assay: Histological analysis of muscle cross-sections (Hematoxylin-Eosin): number and cross-section surface of muscle fibers
Protocol: At P11, one hour after their last gavage, the treated mice were anaesthetized with pentobarbital 1% at 6 μL/g of mouse then the extensor muscles Soleus, with a mixed typology, extensor Plantaris, with a fast typology, and flexor Tibialis, with a fast typology, were sampled in order to conduct histological or molecular studies. After sampling, the muscles Soleus, Plantaris and Tibialis were included individually in a preservation medium then frozen in cooled isopentane. For each muscle, medial cross-sections 10 μm thick were realized. These sections were stained with Hematoxyline-Eosin, dehydrated and mounted in an inclusion medium. The images of these sections were taken with a microscope (with a magnification ×200). In order to obtain images with an impression of relief, the differential interference contrast technique was used. From these images, the number of muscle fibers of each muscle and the cross-section surface of 20% of these fibers were counted using image processing software (FIG. 2).

AKT = assay: Western blot, phosphorylation of AKT in SMA mice
Protocol: (§1) The frozen muscle Plantaris was homogenized in extraction buffer by mechanical grinding. The supernatant containing the protein extract was sampled, then the protein extracts were then dosed according to the Lowry protein assay. An electrophoresis on SDS-PAGE gel was conducted, then the separated proteins were transferred onto membranes. The primary antibodies used were the following: mouse monoclonal anti-SMN (1:5,000), rabbit polyclonal anti-Ser 473 phospho-AKT (1:1000), rabbit polyclonal anti-AKT ( 1/100), rabbit monoclonal anti phospho-ERK ½ (1:500), anti-MAP Kinase ½ (ERK ½) (1:1000). […] The optical density of each specific band was quantified with image processing software by subtracting the background and by normalizing with the optical density of the β-actin bands. For the controls treated with the vehicle, the values obtained were determined at 1 and the values of the other groups were normalized in relation to these controls and expresses as a relative quantity. […] The quantitative values of pAKT at the Plantaris represent 3 mice per group treated with the vehicle (control or SMA) and 4 mice treated with BIO101. The quantitative values of pERK at the Plantaris represent at least 4 mice per group. The quantitative values of SMN represent n=2. […]

SMN protein = assay: Western blot, level of expression of the SMN protein in SMA mice
Protocol: as §1

[2] = test system: slow, intermediate and fast motor neurons of SMA mice; assay: Motor neuron sub-populations (ChAT/ERRβ/MMP9 co-labeling, lumbar spinal cord)
Protocol: In a manner complementary to the quantitative analysis of the number of motor neurons and of the size of their soma as well as the qualitative study concerning their location (medial or lateral in the ventral spinal cord), we studied the impact of the treatment by BIO101 on the protection of the sub-populations of motor neurons (slow motor neurons, intermediate motor neurons and fast motor neurons). This qualitative analysis of the sub-populations of motor neurons was carried out on thick cross-sections of the lumbar region of the spinal cord (L1-L5) of control or SMA mice treated or not with BIO101 by immunofluorescent labeling with Choline Acetyltransferase such as was described hereinabove (Biondi et al., 2008; Branchu et al., 2013) as well as an analysis of the type of motor neurons by immunofluorescence co-labeling with Estrogen-related receptor-β (ERRβ), a specific marker of the slow motor neurons, or with Matrix metallopeptidase 9 (MMP9), a specific marker of the fast motor neurons.
The anesthetized mice underwent an intracardiac infusion with PBS. The spinal cords of the mice were taken, fixed then rinsed. The lumbar region of the spinal cords (L1-L5) was coated in a 4% solution of agarose. 50 μm cross-sections were made using a vibratome over the entire length of the sample. One section every 5 sections of spinal cord was then used for the immunohistochemical analyses. […]

[3] = muscle Plantaris, SMA mice treated P0 to P11

CC(C)(O)CC[C@@H](O)[C@](C)(O)[C@H]1CC[C@@]2(O)C3=CC(=O)[C@@H]4C[C@@H](O)[C@@H](O)C[C@]4(C)[C@H]3CC[C@]12C [BIO101, 20-hydroxyecdysone]
proportion of muscle fibers with cross-section surface greater than 300 μm^2 ([1]; Plantaris, FIG. 13B): increase
proportion of muscle fibers with cross-section surface less than 200 μm^2 ([1]; Plantaris, FIG. 13B): decrease
atrophy of the muscle fibers (cross-section surface) in relation to healthy control mice ([1]; Plantaris, P11, SMA mice treated P0 to P11 (SMA vehicle 46%)): 17.9%
proportion of fibers with cross-section surface between 0 and 100 μm^2 ([1]; Plantaris, versus SMA vehicle): decrease
proportion of fibers with cross-section surface between 200 and 400 μm^2 ([1]; Plantaris, versus SMA vehicle): increase
proportion of muscle fibers with cross-section surface greater than 300 μm^2 ([1]; Soleus, FIG. 13C): increase
proportion of muscle fibers with cross-section surface less than 200 μm^2 ([1]; Soleus, FIG. 13C): decrease
atrophy of the muscle fibers (cross-section surface) in relation to healthy control mice ([1]; Soleus, P11, SMA mice treated P0 to P11 (SMA vehicle 50.2%)): 37.8%
proportion of fibers with cross-section surface between 100 and 200 μm^2 ([1]; Soleus, versus SMA vehicle): decrease
proportion of fibers with cross-section surface between 200 and 400 μm^2 ([1]; Soleus, versus SMA vehicle): increase
atrophy of the muscle fibers (cross-section surface) in relation to healthy control mice ([1]; Tibialis, P11, SMA mice treated P0 to P11 (SMA vehicle 56.1%)): 32.7%
number of muscle fibers ([1]; Tibialis, SMA mice treated P0 to P11, 50 mg/kg): 2,358 fibers
increase in number of muscle fibers compared to vehicle ([1]; Tibialis, SMA mice treated P0 to P11, p<0.05): 14%
proportion of fibers with cross-section surface between 400 and 800 μm^2 ([1]; Tibialis, versus SMA vehicle): significant increase
proportion of fibers with cross-section surface between 100 and 200 μm^2 ([1]; Tibialis, versus SMA vehicle, p<0.05): decreases significantly
phosphorylation of AKT (pAKT) (AKT; [3]): very substantially increasing
level of pAKT (AKT; spinal cord, SMA mice treated daily for 11 days): increasing
level of expression of SMN (SMN protein; [3]): no modification
level of SMN (SMN protein; spinal cord, SMA mice treated for 11 days): does not allow for the restoration
number of fast motor neurons (ChAT+MMP9+) ([2]; SMA mice treated P0 to P11 (SMA vehicle 11), p<0.05): 14
number of slow motor neurons (ChAT+ERRβ+) ([2]; between healthy vehicle, SMA vehicle and SMA treated groups): does not vary significantly
